Data on four molecules can be found in US12281149B2, “Modulators of G-protein coupled receptors” (priority 2021, dated 2025).

What all share (format): cell-based
Assay [1] concerns the target T1, GLP-1 receptor (Homo sapiens, UniProt P43220). Nature of the assay: PathHunter β-arrestin assay, GLP-1 receptor. Further details: host or cells: PathHunter CHO-K1 GLP1R β-Arrestin Cell Line. The settings on record: β-arrestin-2 recruitment, PathHunter CHO-K1 GLP1R β-Arrestin Cell Line, 90 min at 37° C.; normalized to GLP-1; read-out: GLP-1R β Arrestin EC50.
Assay [2] addresses T1, GLP-1 receptor. Description: HitHunter cAMP assay, GLP-1 receptor. The note with it: for pEC50: CHO cells stably expressing human GLP-1 receptor, cAMP accumulation, 30 min, read-out: EC50 GLP-1R; for Emax: CHO cells, cAMP, normalized to maximum signal from GLP-1 (high) and DMSO (low), read-out: Emax GLP-1R. Background: Cyclic AMP is a second messenger, typically raised through Gs and lowered through Gi signalling.

Assay [3] has as its target T2, GIP receptor (Homo sapiens, UniProt P48546).
T2 sequence (P48546 22-466): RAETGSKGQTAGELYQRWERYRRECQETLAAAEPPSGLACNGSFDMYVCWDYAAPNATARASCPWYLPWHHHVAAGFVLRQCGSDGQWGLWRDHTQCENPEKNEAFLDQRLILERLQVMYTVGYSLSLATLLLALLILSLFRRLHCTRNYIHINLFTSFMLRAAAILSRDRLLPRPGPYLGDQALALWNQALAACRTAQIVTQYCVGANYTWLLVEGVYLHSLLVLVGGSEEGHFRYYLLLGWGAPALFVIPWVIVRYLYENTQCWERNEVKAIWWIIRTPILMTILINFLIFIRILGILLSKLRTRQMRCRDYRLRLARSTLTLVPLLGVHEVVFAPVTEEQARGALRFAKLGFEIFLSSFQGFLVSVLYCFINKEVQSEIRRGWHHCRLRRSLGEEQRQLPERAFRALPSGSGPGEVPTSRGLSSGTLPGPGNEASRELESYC
Description: PathHunter β-arrestin assay, GIP receptor. Further details: host or cells: PathHunter CHO-K1 GIPR β-Arrestin Cell Line. The settings on record: β-arrestin-2 recruitment, PathHunter CHO-K1 GIPR β-Arrestin Cell Line, 90 min at 37° C.; normalized to GIP; read-out: GIPR β Arrestin EC50. (In general: Activated receptors often draw arrestin, which recruitment assays turn into a signal.)

In assay [4] the target is T2, GIP receptor. Nature of the assay: HitHunter cAMP assay, GIP receptor. The settings on record: for pEC50: CHO cells stably expressing GIP receptor, cAMP accumulation, 30 min, read-out: EC50 GIP-1R; for Emax: CHO cells, cAMP, normalized to maximum signal from GIP (high) and DMSO (low), read-out: Emax GIP-1R.

pEC50: −log10 of the molar value. *1 amine or outer side, *2 acyl side, *3 side chain or, on linkers, in order; H or OH if unused. Where a SMILES comes first, the peptide text is derived from it. Side-chain parts run from the residue outwards. [ ]: non-standard residue; d: D form. The star is where a group is joined. Isobutyryl(2-(3-CN-5-F-Ph)) = CC(C)(C(=O)*)c1cc(F)cc(C#N)c1; C20 diacid = O=C(O)CCCCCCCCCCCCCCCCCCC(=O)*; γGlu = O=C(O)[C@H](CCC(=O)[*:2])N[*:1]; d(β3hD) = NC(CC(=O)O)CC(=O)O; AEEA = NCCOCCOCC(=O)O; Aib = CC(C)(N)C(=O)O; βAla = NCCC(=O)O A value given as a limit tells only on which side of the number the result lay.

T1 sequence (P43220 24-463): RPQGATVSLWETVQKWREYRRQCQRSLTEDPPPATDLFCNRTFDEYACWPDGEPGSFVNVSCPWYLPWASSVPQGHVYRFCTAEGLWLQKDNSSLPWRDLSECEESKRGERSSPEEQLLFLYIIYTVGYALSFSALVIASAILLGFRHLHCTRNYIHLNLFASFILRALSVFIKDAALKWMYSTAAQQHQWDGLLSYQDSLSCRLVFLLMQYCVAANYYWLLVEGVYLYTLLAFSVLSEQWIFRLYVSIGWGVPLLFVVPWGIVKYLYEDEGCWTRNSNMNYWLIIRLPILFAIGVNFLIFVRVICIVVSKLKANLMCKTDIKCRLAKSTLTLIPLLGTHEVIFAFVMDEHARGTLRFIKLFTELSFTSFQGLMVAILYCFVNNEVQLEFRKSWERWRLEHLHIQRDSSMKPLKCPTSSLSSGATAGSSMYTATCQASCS

In general, pEC50 refers to the EC50 on a negative log10 scale, so that one unit is a factor of ten. Usually Emax stands for the maximal effect, on the per cent scale that the assay sets. Consider `CC[C@H](C)[C@H](NC(=O)[C@H](CO)NC(=O)[C@H](Cc1ccc(O)cc1)NC(=O)[C@H](CC(=O)O)NC(=O)[C@H](CO)NC(=O)[C@@H](NC(=O)[C@H](Cc1ccccc1)NC(=O)[C@@H](NC(=O)CNC(=O)[C@H](CCC(=O)O)NC(=O)CCNC(=O)[C@]1(c2ccccc2)CNC(=O)C1)[C@@H](C)O)[C@@H](C)O)C(=O)N[C@@H](Cc1ccc(O)cc1)C(=O)N[C@@H](CC(C)C)C(=O)N[C@@H](CC(=O)O)C(=O)N[C@@H](CCCCN)C(=O)N[C@@H](CCC(N)=O)C(=O)N[C@@H](C)C(=O)N[C@@H](C)C(=O)NC(C)(C)C(=O)N[C@@H](CCC(=O)O)C(=O)N[C@@H](Cc1ccccc1)C(=O)N[C@H](C(=O)N[C@@H](CC(N)=O)C(=O)N[C@@H](Cc1c[nH]c2ccccc12)C(=O)N[C@@H](CC(C)C)C(=O)N[C@@H](CC(C)C)C(=O)N[C@@H](C)C(=O)NCC(=O)NCC(=O)N1CCC[C@H]1C(=O)N[C@@H](CO)C(=O)N[C@@H](CO)C(=O)NCC(=O)N[C@@H](C)C(=O)N1CCC[C@H]1C(=O)N1CCC[C@H]1C(=O)N1CCC[C@H]1C(=O)N[C@@H](CO)C(=O)N[C@@H](CCCCNC(=O)COCCOCCNC(=O)COCCOCCNC(=O)CC[C@H](NC(=O)CCCCCCCCCCCCCCCCCCC(=O)O)C(=O)O)C(N)=O)C(C)C` (single isomer, unassigned) [Compound 130], for which the pEC50 in assay [1] is below 6.00; in assay [2] it was 8.00 to 9.00; in assay [3], below 6.00; in assay [4], 8.00 to 9.00. For the same molecule, the Emax in assay [2] was 107%; in assay [4], 106%.

With `CC[C@H](C)[C@H](NC(=O)[C@H](CO)NC(=O)[C@H](Cc1ccc(O)cc1)NC(=O)[C@H](CC(=O)O)NC(=O)[C@H](CO)NC(=O)[C@@H](NC(=O)[C@H](Cc1ccccc1)NC(=O)[C@@H](NC(=O)CNC(=O)[C@H](CCC(=O)O)NC(=O)CCNC(=O)C1(n2cccn2)CCOC(C)C1)[C@@H](C)O)[C@@H](C)O)C(=O)N[C@@H](Cc1ccc(O)cc1)C(=O)N[C@@H](CC(C)C)C(=O)N[C@@H](CC(=O)O)C(=O)N[C@@H](CCCCN)C(=O)N[C@@H](CCC(N)=O)C(=O)N[C@@H](C)C(=O)N[C@@H](C)C(=O)NC(C)(C)C(=O)N[C@@H](CCC(=O)O)C(=O)N[C@@H](Cc1ccccc1)C(=O)N[C@H](C(=O)N[C@@H](CC(N)=O)C(=O)N[C@@H](Cc1c[nH]c2ccccc12)C(=O)N[C@@H](CC(C)C)C(=O)N[C@@H](CC(C)C)C(=O)N[C@@H](C)C(=O)NCC(=O)NCC(=O)N1CCC[C@H]1C(=O)N[C@@H](CO)C(=O)N[C@@H](CO)C(=O)NCC(=O)N[C@@H](C)C(=O)N1CCC[C@H]1C(=O)N1CCC[C@H]1C(=O)N1CCC[C@H]1C(=O)N[C@@H](CO)C(=O)N[C@@H](CCCCNC(=O)COCCOCCNC(=O)COCCOCCNC(=O)CC[C@H](NC(=O)CCCCCCCCCCCCCCCCCCC(=O)O)C(=O)O)C(N)=O)C(C)C` (stereo partly drawn) [Compound 101], the pEC50 in assay [1] was below 6.00; in assay [2], 8.00 to 9.00; in assay [3] it was below 6.00; in assay [4] it was 7.00 to 8.00. Also, the Emax in assay [2] amounted to 93%; in assay [4], 96%.

Turning to `CC[C@H](C)[C@H](NC(=O)[C@H](CO)NC(=O)[C@H](Cc1ccc(O)cc1)NC(=O)[C@H](CC(=O)O)NC(=O)[C@H](CO)NC(=O)[C@@H](NC(=O)[C@H](Cc1ccccc1)NC(=O)[C@@H](NC(=O)CNC(=O)[C@H](CCC(=O)O)NC(=O)CCNC(=O)C(C)(C)c1cc(F)cc(C#N)c1)[C@@H](C)O)[C@@H](C)O)C(=O)N[C@@H](Cc1ccc(O)cc1)C(=O)N[C@@H](CC(C)C)C(=O)N[C@@H](CC(=O)O)C(=O)N[C@@H](CCCCN)C(=O)N[C@@H](CCC(N)=O)C(=O)N[C@@H](C)C(=O)N[C@@H](C)C(=O)NC(C)(C)C(=O)N[C@@H](CCC(=O)O)C(=O)N[C@@H](Cc1ccccc1)C(=O)N[C@H](C(=O)N[C@@H](CCCCNC(=O)COCCOCCNC(=O)COCCOCCNC(=O)CC[C@H](NC(=O)CCCCCCCCCCCCCCCCCCC(=O)O)C(=O)O)C(=O)N[C@@H](Cc1c[nH]c2ccccc12)C(=O)N[C@@H](CC(C)C)C(=O)N[C@@H](CC(C)C)C(=O)N[C@@H](C)C(=O)NCC(=O)NCC(=O)N1CCC[C@H]1C(=O)N[C@@H](CO)C(=O)N[C@@H](CO)C(=O)NCC(=O)N[C@@H](C)C(=O)N1CCC[C@H]1C(=O)N1CCC[C@H]1C(=O)N1CCC[C@H]1C(=O)N[C@@H](CO)C(N)=O)C(C)C` [Compound 103] ({Isobutyryl(2-(3-CN-5-F-Ph))-βAla}-EGTFTSDYSIYLDKQAA[Aib]EFVK([AEEA-AEEA-γGlu-C20 diacid])WLLAGGPSSGAPPPS-NH2), the pEC50 in assay [1] is below 6.00; in assay [2] it was 9.00 to 10.00; in assay [3], below 6.00; in assay [4], 7.00 to 8.00. Also, the Emax stood at 89% in assay [2] and 96% in assay [4].

Turning to `CC[C@H](C)[C@H](NC(=O)[C@H](CC(C)C)NC(=O)[C@H](Cc1c[nH]c2ccccc12)NC(=O)[C@H](CCC(N)=O)NC(=O)[C@@H](NC(=O)[C@H](Cc1ccccc1)NC(=O)[C@H](C)NC(=O)[C@H](CCCCNC(=O)COCCOCCNC(=O)COCCOCCNC(=O)CC[C@H](NC(=O)CCCCCCCCCCCCCCCCCCC(=O)O)C(=O)O)NC(=O)[C@H](CCC(N)=O)NC(=O)[C@H](C)NC(=O)[C@@H](NC(=O)[C@H](CCCCN)NC(=O)[C@H](CC(=O)O)NC(=O)[C@H](CC(C)C)NC(=O)C(C)(C)NC(=O)[C@@H](NC(=O)[C@H](CO)NC(=O)[C@H](Cc1ccc(O)cc1)NC(=O)[C@H](CC(=O)O)NC(=O)[C@H](CO)NC(=O)[C@@H](NC(=O)[C@H](Cc1ccccc1)NC(=O)[C@@H](NC(=O)CNC(=O)C[C@@H](CC(=O)O)NC(=O)CCNC(=O)C(C)(C)c1cc(F)cc(C#N)c1)[C@@H](C)O)[C@@H](C)O)[C@@H](C)CC)[C@@H](C)CC)C(C)C)C(=O)N[C@@H](C)C(=O)NCC(=O)NCC(=O)N1CCC[C@H]1C(=O)N[C@@H](CO)C(=O)N[C@@H](CO)C(=O)NCC(=O)N[C@@H](C)C(=O)N1CCC[C@H]1C(=O)N1CCC[C@H]1C(=O)N1CCC[C@H]1C(=O)N[C@@H](CO)C(N)=O` [Compound 104] ({Isobutyryl(2-(3-CN-5-F-Ph))-βAla}-[d(β3hD)]GTFTSDYSI[Aib]LDKIAQK([AEEA-AEEA-γGlu-C20 diacid])AFVQWLIAGGPSSGAPPPS-NH2), the pEC50 in assay [1] was below 6.00; in assay [2], 6.00 to 7.00; in assay [3], below 6.00; in assay [4], 6.00 to 7.00. Also, the Emax amounted to 60% in assay [2] and 66% in assay [4].
